# In paper PMC9854712 (Antioxidants, 2023):
# Experiments:
# in vitro = test: in vitro
# Method: Franz diffusion cells (Microette 8910130, Hanson Research) were employed to perform this assay. The compounds were dissolved in DMSO at 5 mg/mL and diluted to 500 µg/mL with phosphate-buffered saline (PBS)/EtOH (7:3) to make a stock solution. A total of 10 µL of porcine brain lipid (PBL) diluted in dodecane solution (20 mg/mL) was spread onto a PVDF membrane that was placed between the donor and acceptor compartments, forming a sandwich structure. Then, 4.5 mL of PBS/EtOH (7:3) was added to the acceptor compartment and 700 µL of the stock solution was added to the donor cell. […] The concentration of the compound was calculated from the standard curve and expressed as permeability (Pe) by the following formula [84]:Permeability (cm/s): Pe = {−ln [1 − CA(t)/Ceq]}/[A ∗ (1/VD + 1/VA) ∗ t]
# A = filter area ([…]), VD = donor cell volume (0.7 mL), VA = acceptor cell volume (4.5 mL), t = incubation time, CA (t) = compound concentration in acceptor cell at time t, CD (t) = compound concentration in donor cell at time t, and Ceq = [CD(t) ∗ VD + […] ∗ VA]/(VD + VA).
# Every sample was analyzed at least in duplicate and the data were reported as mean ± SD.
# MDA-MB-231 cells = test: MTT cell viability assay, MDA-MB-231; type: cell-based; details: Homo sapiens, MDA-MB-231, 48 h, read-out: Cell growth % at 10 µM, MDA-MB-231
# Method: (§1) The cell lines were obtained from the American Type Culture Collection (ATCC). Five tumor cell lines (MDA-MB-231, MCF-7, HCT116, HTB-54, and DU-145) and two non-tumorigenic cells (184B5 and BEAS-2B) were grown in RPMI 1640 medium (Gibco), and the HT-29 tumor cell line was grown in McCoy’s medium. Both mediums were supplemented with 10% fetal bovine serum (FBS; Gibco) and 1% antibiotics (10.00 units/mL penicillin and 10.00 μg/mL streptomycin; Gibco). Cells were preserved in tissue culture flasks at 37 °C and 5% CO2. The culture medium was replaced every three days.
# (§2) The effect of each compound on cell viability was tested using the MTT assay. […] Selected compounds were then tested at seven different concentrations (0.5–100 μM) in MCF-7, HCT116, HT-29, HTB-54, 184B5 and BEAS-2B cells. Cells were seeded at 10^4 per well onto flat-bottomed 96-well culture plates. They were treated with either DMSO or increasing concentration of the corresponding compound for 48 h. Then, they were incubated with 20 μL of 3-(4,5-dimethylthiazol-2-yl)-2,5-diphenyltetrazolium bromide (MTT) (2 mg /mL stock; Aldrich) for 2,5 h and analyzed for their ability to generate a purple formazan dye. These formazan crystals were dissolved in 50 μL of DMSO. The absorbance was measured at a wavelength of 550 nm and the ratio of viable cells was calculated.
# (§3) Results are expressed as cell viability % at 10 μM. Selectivity index were calculated as the ratio of the IC50 values determined for the non-malignant and the tumor cells in breast (IC50 (184B5)/IC50 (MCF-7)) and lung (IC50 (BEAS-2B)/IC50 (HTB-54)) cell lines. Data were obtained from at least three independent experiments performed in triplicates.
# AChE = target: T1, AChE (Rattus norvegicus, UniProt P37136); test: AChE inhibition by Ellman's method (rat frontal cortex homogenate); type: biochemical; details: at 10^−6 M, Ellman's method
# T1 construct: from tissue; host or cells: frontal cortex of male Wistar rats (crude homogenate)
# T1 sequence (P37136 32-614): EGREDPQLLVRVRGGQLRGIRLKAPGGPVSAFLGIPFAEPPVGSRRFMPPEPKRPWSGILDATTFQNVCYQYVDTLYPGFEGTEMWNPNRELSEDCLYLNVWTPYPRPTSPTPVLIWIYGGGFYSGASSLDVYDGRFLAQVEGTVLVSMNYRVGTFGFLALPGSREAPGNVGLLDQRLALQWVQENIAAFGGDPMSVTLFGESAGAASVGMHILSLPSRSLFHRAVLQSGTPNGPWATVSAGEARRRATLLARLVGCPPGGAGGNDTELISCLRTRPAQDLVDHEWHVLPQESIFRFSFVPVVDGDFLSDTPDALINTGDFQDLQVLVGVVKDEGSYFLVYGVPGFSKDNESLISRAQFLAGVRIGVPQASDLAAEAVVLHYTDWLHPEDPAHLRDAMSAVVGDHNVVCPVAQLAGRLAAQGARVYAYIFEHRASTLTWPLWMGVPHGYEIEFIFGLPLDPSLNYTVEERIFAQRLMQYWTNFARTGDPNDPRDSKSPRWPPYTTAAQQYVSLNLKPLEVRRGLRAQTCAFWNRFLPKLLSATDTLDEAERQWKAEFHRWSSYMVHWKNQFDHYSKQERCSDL
# Method: Frontal cortex tissue obtained from male Wistar rats was homogenized in 39 volumes of 75 mM sodium phosphate buffer (pH 7.4). A mixture of 260 μL containing the compounds assessed, acetylthiocholine iodide and 5 μL tissue homogenate was incubated for 8 min. The reaction was then terminated by adding 50 μL 3% (w/v) sodium dodecyl sulphate followed by 50 μL 0.2% (w/v) 5,5′-dithio-bis(2-nitrobenzoic) acid to produce the yellow anion of 5-thio-2-nitro-benzoic-acid. The extent of the color production was measured spectrophotometrically at 405 nm using Multiskan Ex (Thermo Electron Corporation). […] Results are expressed as the mean ± SD and each experiment was repeated three times.
# HT-29 cells = test: MTT cell viability assay, HT-29; type: cell-based; details: Homo sapiens; for viability at 10 µM: HT-29, 10 µM, 48 h, read-out: Cell growth % at 10 µM, HT-29
# Method: as §1, §2, §3
# DU-145 cells = test: MTT cell viability assay, DU-145; type: cell-based; details: Homo sapiens, DU-145, 48 h, read-out: Cell growth % at 10 µM, DU-145
# Method: as §1, §2, §3
# HTB-54 cells = test: MTT cell viability assay, HTB-54; type: cell-based; details: for viability at 10 µM: read-out: Cell growth % at 10 µM, HTB-54
# Method: as §1, §2, §3
# [1] = test system: panel of 60 human tumor cell lines; design: method as in PMID 19549304; details: same cell line panel; cited from earlier work
# 184B5 cells = test: MTT cell viability assay, 184B5 (non-tumorigenic); type: cell-based; details: Homo sapiens, 48 h, nonmalignant mammary gland
# Method: as §1, §2, §3
# BEAS-2B cells = test: MTT cell viability assay, BEAS-2B (non-tumorigenic); type: cell-based; details: Homo sapiens, 48 h, nonmalignant bronchial epithelium
# Method: as §1, §2, §3
# MCF-7 cells = test: MTT cell viability assay, MCF-7; type: cell-based
# Method: as §1, §2, §3
# HCT116 cells = test: MTT cell viability assay, HCT116; type: cell-based; details: Homo sapiens, HCT-116, 48 h
# Method: as §1, §2, §3
# [2] = test system: HTB-54, DU-145, HT-29 and MDA-MB-231 cancer cell lines; test: cells; type: cell-based; details: against the panel of the four cancer cell lines
# Method: as §1, §2
# As a first approach, all the compounds were tested in vitro against lung (HTB-54), prostatic (DU-145), colon (HT-29), and triple-negative breast (MDA-MB-231) cancer cell lines at two concentrations (50 and 10 µM) for 48 h. Then, the MTT colorimetric assay was used to evaluate cell proliferation after the treatment. The data are expressed as the percentage of cell growth ± SD in at least three independent experiments performed in quadruplicates (Table S1).
SMILES,viability at 10 µM (MDA-MB-231 cells),inhibition at 1 µM (AChE),viability at 10 µM (HT-29 cells),viability at 10 µM (DU-145 cells),"viability at 10 µM (HTB-54 cells; HTB-54, 48 h, MTT)",other results
"COc1ccc2c3c1O[C@H]1C[C@@H](O)C=C[C@@]31CCN(C)C2 [Galantamine, galantamine, reference compound]",,,,,,"Papp at 20 h, 500 µg/mL (in vitro; PAMPA): 12.3 ± 3.1 ×10⁻⁶ cm/s; Pe ± SD (in vitro; PAMPA-BBB, porcine brain lipid, 20 h, 25 °C): 12.27 ×10⁻⁶ cm/s; BBB Permeation (Experimental) (in vitro; class from PAMPA-BBB Pe): High (High BBB permeation predicted; Pe (10^−6 cm s^−1) > 4.0)"
"C=CC[Se]C(=O)c1ccco1 [Compound 11a, Se-allyl 4-furan-2-carboselenoate]",34.1 ± 10.6%,18.6 ± 2.8%,79.8 ± 16.3%,35.3 ± 5.8%,30.7 ± 6.2%,
"C#CC[Se]C(=O)c1ccno1 [Compound 12b, Se-prop-2-ynyl isoxazole-5-carboselenoate]",92.5 ± 15.1%,21.7 ± 7.9%,81.3 ± 11.1%,95.1 ± 12.3%,97.6 ± 7.1%,
"C=CC[Se]C(=O)/C=C/c1ccccc1 [Compound 5a, Se-allyl 3-phenylprop-2E-eneselenoate]",91.1 ± 16.8%,8.7 ± 4.9%,87.6 ± 7.9%,83.3 ± 7.8%,46.1 ± 5.6%,
O=c1[nH]cc(F)c(=O)[nH]1 [5-fluorouracil],,,,,,GI50 [1]: 57.5 µM
"C#CC[Se]C(=O)Cc1c(C)n(C(=O)c2ccc(Cl)cc2)c2ccc(OC)cc12 [Compound 17b, Se-prop-2-ynyl 2-(1-(4-chlorobenzoyl)-5-methoxy-2-methyl-1H-indol-3-yl)ethaneselenoate]",59.1 ± 11.5%,23 ± 6.7%,66.3 ± 10.2%,19.2 ± 4%,85.9 ± 5.1%,
C=CC[Se]C(=O)C(C)c1ccc(CC(C)C)cc1 (stereo not shown) [Compound 15a],38 ± 5.4%,19.3 ± 0.1%,49 ± 7.2%,19.1 ± 7%,38 ± 7.1%,"IC50 (184B5 cells): 11.5 ± 1.4 µM; IC50 (HT-29 cells; HT-29, 48 h): 9.2 ± 0.7 µM; IC50 (BEAS-2B cells): 11.1 ± 2.6 µM; IC50 (HTB-54 cells; HTB-54, MTT, 48 h): 23.5 ± 5.8 µM; SI (lung) (HTB-54 cells; IC50 (BEAS-2B)/IC50 (HTB-54)): 0.5; IC50 (MCF-7 cells; Homo sapiens, MCF7, MTT, 48 h): 11.2 ± 0.2 µM; SI (breast) (MCF-7 cells; IC50 (184B5)/IC50 (MCF-7)): 1.1; IC50 (HCT116 cells): 10.2 ± 0.1 µM; viability at 10 µM [2]: < 55%"
"C=CC[Se]C(=O)c1cccs1 [Compound 9a, Se-allyl thiophene-2-carboselenoate]",89.4 ± 4.9%,25.9 ± 2.4%,99.5 ± 8.3%,48.6 ± 6.2%,64.8 ± 8.5%,
